This data set has as its target T1, CYP1A2 (Homo sapiens, UniProt P05177).
T1 sequence (P05177 1-516): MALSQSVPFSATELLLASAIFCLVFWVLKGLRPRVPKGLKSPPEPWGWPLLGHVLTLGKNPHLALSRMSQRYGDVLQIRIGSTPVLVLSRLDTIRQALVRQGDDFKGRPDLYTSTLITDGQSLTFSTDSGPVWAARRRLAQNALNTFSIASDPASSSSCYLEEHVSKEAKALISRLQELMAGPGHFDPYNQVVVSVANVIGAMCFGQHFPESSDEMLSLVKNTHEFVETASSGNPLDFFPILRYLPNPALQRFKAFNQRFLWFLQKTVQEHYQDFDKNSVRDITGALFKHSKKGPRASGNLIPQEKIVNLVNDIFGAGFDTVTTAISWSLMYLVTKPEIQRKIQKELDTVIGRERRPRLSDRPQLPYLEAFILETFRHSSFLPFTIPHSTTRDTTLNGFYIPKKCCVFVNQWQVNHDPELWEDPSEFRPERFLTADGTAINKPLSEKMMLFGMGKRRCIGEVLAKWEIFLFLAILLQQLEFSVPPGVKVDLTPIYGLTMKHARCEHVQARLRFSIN
The data set can be described thus: in vitro. Type of data set: biochemical.

Setting [1] is: human, recombinant enzyme, pH 7.4.
Setting [2] is: human, recombinant human CYP1A2, pH 7.4, probe phenacetin (25 μM), O-deethylation to acetaminophen, 1 μM active ingredient, Rh CYP1A2-mediated phenacetin O-deethylation, test dataset of 202 herb ingredients, read-out: % of Control Indication Activity (Mean).
[3] abbreviates: 1 μM active ingredient, Rh CYP1A2-mediated phenacetin O-deethylation, test dataset of 202 herb ingredients.
The mark [4] stands for this setting: recombinant enzyme, pH 7.4, 1 μM active ingredient, Rh CYP1A2-mediated phenacetin O-deethylation, test dataset of 202 herb ingredients, read-out: % of Control Indication Activity (Mean).

Structures can show the parent of a compound that is named as a salt. Where two headings read alike, the source gives them in different places. Where only a bound is given, the exact number is not on record here.
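Also: recombinant CYP1A2 incubated for 1 h at 37 °C, with the reaction started by an NADPH-generating system.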

On to `COc1cc(C(O)C(CO)Oc2ccc(/C=C\CO)cc2OC)ccc1O` (single isomer, unassigned; (-)) [zhang 779, (−)-Threo-guaiacylglycerol-8-O-4′-(coniferyl alcohol) ether], for which the activity at 1 h, 1 μM (human, recombinant human CYP1A2, pH 7.4, probe phenacetin (25 μM), O-deethylation to acetaminophen, 1 μM test compound, 25 μM phenacetin, average of duplicate determinations, read-out: % of Control Indication Activity) was above 90%.
In the case of `O=Cc1ccc(O)c(O)c1` [3,4-Dihydroxybenzaldehyde], the activity at 1 h, 1 μM under setting [1] was above 90%.
Turning to `COc1ccc(C=O)c(O)c1` [4-Methoxysalicylaldehyde], the activity at 1 h, 1 μM under setting [2] was above 90%.
For `O=Cc1ccc(CO)o1` [5-Hydroxymethylfurfural], the activity at 1 h, 1 μM under setting [2] is above 90%.
Take `COc1c2c(cc3oc(C)cc(=O)c13)OC(C(C)(C)O[C@@H]1O[C@H](CO)[C@@H](O)[C@H](O)[C@H]1O)C2` (stereo partly drawn) [5-O-Methylvisammioside]: the “% of Control Indication Activity (Mean)” value under setting [3] is listed as above 90%.
Consider `Oc1cc(O)c2c(c1)O[C@H](c1ccc(O)c(O)c1)[C@@H](O)C2` [(+)-Catechin], for which the “% of Control Indication Activity (Mean)” value under setting [3] is above 90%.
Consider `Oc1cc(O)c2c(c1)O[C@H](c1ccc(O)c(O)c1)[C@H](O)C2` [(−)-Epicatechin], for which the activity at 1 h, 1 μM under setting [2] is above 90%.
Consider `CCN1C[C@]2(COC)[C@H](O)C[C@H](OC)[C@@]34[C@@H]5C[C@@]6(O)[C@H](OC(=O)c7ccccc7)[C@@H]5[C@@](OC(C)=O)([C@@H]([C@H](OC)[C@H]23)[C@@H]14)[C@@H](O)[C@@H]6OC` [Aconitine], for which the activity at 1 h, 1 μM under setting [4] is above 90%.
In the case of `C=C1C(=O)O[C@@H]2C[C@@]3(C)CCC[C@H](C)C3=C[C@H]12` [Alantolactone], the “% of Control Indication Activity (Mean)” value under setting [3] is listed as above 90%.
Take `O=C1c2cccc(O)c2C(=O)c2c(O)cc(CO)cc21` [Aloe-emodin]: the activity at 1 h, 1 μM under setting [1] was above 90%.
Regarding `COc1cc(O)cc2c1C(=O)C[C@@H](c1ccccc1)O2` [Alpinetin], under setting [2], the activity at 1 h, 1 μM was above 90%.
Regarding `O=C1CCC[C@@H]2[C@H]3CCC[N@+]4([O-])CCC[C@@H](CN12)[C@@H]34` [Ammothamnine], the “% of Control Indication Activity (Mean)” value under setting [3] is above 90%.
Consider `N#C[C@H](O[C@@H]1O[C@H](CO[C@@H]2O[C@H](CO)[C@@H](O)[C@H](O)[C@H]2O)[C@@H](O)[C@H](O)[C@H]1O)c1ccccc1` [Amygdalin], for which, under setting [4], the activity was above 90%.
As to `C=C1CC[C@@H]2[C@](C)(CO)[C@H](O)CC[C@@]2(C)[C@@H]1C/C=C1/C(=O)OC[C@H]1O` [Andrographolide], the activity at 1 h, 1 μM under setting [2] was above 90%.
`COc1ccc(C=O)cc1` [Anisaldehyde]: under setting [4], the activity is above 90%.
For the molecule `COc1ccc(C[C@H]2COC(=O)[C@@H]2Cc2ccc(O[C@@H]3O[C@H](CO)[C@@H](O)[C@H](O)[C@H]3O)c(OC)c2)cc1OC` [Arctiin], the activity at 1 h, 1 μM under setting [2] was above 90%.
As to `COC(=O)C1=CCCN(C)C1` [Arecoline], the activity under setting [4] is above 90%.
Regarding `COc1cccc2c1cc([N+](=O)[O-])c1c(C(=O)O)cc3c(c12)OCO3` [Aristolochic Acid], the activity at 1 h, 1 μM under setting [4] is above 90%.
Turning to `CN1[C@@H]2CC[C@H]1C[C@@H](OC(=O)C(CO)c1ccccc1)C2` (stereo partly drawn) [Atropine Sulfate], the activity (recombinant enzyme, pH 7.4) was above 90%.
For the molecule `O=c1cc(-c2ccccc2)oc2cc(O)c(O)c(O)c12` [Baicalein], the activity at 1 h, 1 μM under setting [1] is above 90%.
In the case of `O=C(O)[C@H]1O[C@@H](Oc2cc3oc(-c4ccccc4)cc(=O)c3c(O)c2O)[C@H](O)[C@@H](O)[C@@H]1O` [Baicalin], the activity at 1 h, 1 μM under setting [1] is above 90%.
As to `O=C1c2c(O)cccc2C([C@@H]2O[C@H](CO)[C@@H](O)[C@H](O)[C@H]2O)c2cc(CO)cc(O)c21` (stereo partly drawn) [Bar baloin], the activity at 1 h, 1 μM under setting [2] was above 90%.
For the molecule `COc1ccc2cc3[n+](cc2c1OC)CCc1cc2c(cc1-3)OCO2` [Berberine Hydrochloride], the activity at 1 h, 1 μM under setting [2] was above 90%.
Turning to `COc1c(O)cc2c(c1O)[C@@H]1O[C@H](CO)[C@@H](O)[C@H](O)[C@H]1OC2=O` [Bergenin], the activity at 1 h, 1 μM under setting [2] is above 90%.
The same measure, in the same setting: in the case of `C[N+](C)(C)CC(=O)O` [Betaine] it was above 90%.
For `CC(C)(C)[C@]1(O)CC2OC(=O)CC23C(=O)OC2OC(=O)[C@H](O)C231` (stereo partly drawn) [Bilobalide], the activity at 1 h, 1 μM under setting [4] is above 90%.
Regarding `CC(=O)OC1CC2CCC1(C)C2(C)C` (stereo not drawn) [Bornylacetate], under setting [2], the activity at 1 h, 1 μM was above 90%.
In the case of `CC(=O)O[C@H]1C[C@]2(O)[C@@H]3CC[C@@H]4C[C@@H](O)CC[C@]4(C)[C@H]3CC[C@]2(C)[C@H]1c1ccc(=O)oc1` [Bufatalin], under setting [3], the “% of Control Indication Activity (Mean)” value is above 90%.
Take `CCOC(=O)/C=C/c1ccc(O)c(O)c1` [Caffeic acid ethyl ester]: the “% of Control Indication Activity (Mean)” value under setting [3] is reported as above 90%.
Turning to `O=C(O)/C=C/c1ccc(O)c(O)c1` [Caffeic acid], under setting [2], the activity at 1 h, 1 μM is above 90%.
On to `C[C@@]12C(=O)OC(=O)[C@]1(C)[C@H]1CC[C@@H]2O1` [Cantharidin], for which the activity at 1 h, 1 μM under setting [4] is above 90%.
In the case of `COc1cc(O)cc(O)c1C(=O)/C=C/c1ccccc1` [Cardamonin], the “% of Control Indication Activity (Mean)” value under setting [3] is listed as above 90%.
`Cc1ccc(C(C)C)cc1O` [Carvacrol]: the activity at 1 h, 1 μM under setting [2] was above 90%.
As for `OC[C@H]1O[C@@H](O[C@@H]2OC=C[C@H]3[C@H](O)[C@@H]4O[C@]4(CO)[C@@H]23)[C@H](O)[C@@H](O)[C@@H]1O` [Catalpo l], under setting [2], the activity at 1 h, 1 μM was above 90%.
Turning to `O=C(/C=C/c1ccc(O)c(O)c1)O[C@@H]1C[C@](O)(C(=O)O)C[C@@H](O)[C@H]1O` [Chlorogenic acid], the activity at 1 h, 1 μM under setting [2] was above 90%.
On to `O=c1cc(-c2ccccc2)oc2cc(O)cc(O)c12` [Chrysin], for which the activity at 1 h, 1 μM under setting [1] is 4.6%.
`Cc1cc(O)c2c(c1)C(=O)c1cccc(O)c1C2=O` [Chrysophanol]: the activity at 1 h, 1 μM under setting [1] turned out to be 77.7%.
Turning to `O=C/C=C/c1ccccc1` [Cinnamaldehyde], the activity at 1 h, 1 μM under setting [1] was above 90%.
As to `O=C(O)/C=C/c1ccccc1` [Cinnamic acid], under setting [1], the activity at 1 h, 1 μM is above 90%.
As for `C=C1C(=O)O[C@@H]2/C=C(\C)CC/C=C(\C)CC[C@@H]12` [Costunolide], the activity at 1 h, 1 μM under setting [2] was above 90%.
`COc1cc(/C=C/C(=O)CC(=O)/C=C/c2ccc(O)c(OC)c2)ccc1O` [Curcumin]: the activity at 1 h, 1 μM under setting [2] was above 90%.
In the case of `CC1=C2C[C@H]3[C@@H](CC=C4C[C@@H](O)CC[C@@]43C)[C@@H]2CC[C@]12O[C@@H]1C[C@H](C)CN[C@H]1[C@H]2C` [Cyclopamine], the activity at 1 h, 1 μM under setting [4] is above 90%.
For `O=c1c(-c2ccc(O)cc2)coc2cc(O)ccc12` [Daidzein], the activity at 1 h, 1 μM under setting [1] was above 90%.
As to `C=C1CC[C@@H]2[C@](C)(CO)[C@H](O)CC[C@@]2(C)[C@@H]1/C=C/C1=CCOC1=O` [Dehydroandrographolide], the “% of Control Indication Activity (Mean)” value (recombinant enzyme) is listed as above 90.
Turning to `C=C1CC[C@H]2C(=C)CC[C@H]3C(=C)C(=O)O[C@@H]3[C@@H]12` [Dehydrocostus lactone], the activity at 1 h, 1 μM under setting [1] is above 90%.
For `COc1cc2c(c(OC)c1OC)-c1c(cc(OC)c(OC)c1OC)C[C@H](C)[C@H](C)C2` [Deoxyschizandrin], the “% of Control Indication Activity (Mean)” value under setting [3] is recorded as above 90%.
As to `COc1c2ccc(-c3ccccc3)oc-2cc(=O)c1C` [Dracorhodin], the activity at 1 h, 1 μM under setting [2] is 21.1%.
Take `Cc1cc(O)c2c(c1)C(=O)c1cc(O)cc(O)c1C2=O` [Emodin]: the activity at 1 h, 1 μM under setting [1] was above 90%.
`CN[C@@H](C)[C@H](O)c1ccccc1` [Ephedrine]: the activity (recombinant enzyme, pH 7.4) is above 90%.
Turning to `O=c1ccc2cc(O)c(O)cc2o1` [Esculetin], under setting [1], the activity at 1 h, 1 μM is above 90%.
In the case of `CC12CCC(CC1)C(C)(C)O2` [Eucalyptol], the activity at 1 h, 1 μM under setting [2] is above 90%.

Source of the values: paper PMC3116189, “Novel Natural Inhibitors of CYP1A2 Identified by in Silico and in Vitro Screening” (International Journal of Molecular Sciences, 2011).
